Series [1] deals with duplex DNA (F10T). As to the kind of experiment: FRET-melting assay, F10T (duplex DNA model). It is filed as binding. The note with it: 2 μM compounds.
Series [2] has as its system Sk-Hep-1 cells. The experiment in a line: In vitro antiproliferative MTT assay, Sk-Hep-1 cells. The note with it: mean ± SD (n = 3). It is filed as cell-based, human. Here is the method: (§1) HepG2, Sk-Hep-1, Huh-7, Hep3B and L-02 cells were purchased from Nanjing Key Gen Biotech Co. Ltd. (Nanjing, China). The cytotoxicity of test compounds was determined using an MTT assay. Briefly, the cell lines were incubated at 37 °C in a humidified 5% CO2 incubator for 24 h in 96-microwell plates. After medium removal, 100 μL of culture medium with 0.1% DMSO containing test compounds at different concentrations was added to each well and incubated at 37 °C for another 72 h. The MTT (5 mg/mL in PBS) was added and incubated for another 4 h, the optical density was detected with a microplate reader at 490 nm. The IC50 values were calculated according to the dose-dependent curves. All the experiments were repeated in at least three independent experiments.
In general terms: Tetrazolium assays rely on reduction of a dye to a coloured formazan, in cell work by metabolically active cells.

A short description of series [3]: LWP coefficient (log D) measurement, shake flask. It is filed as physicochemical. The protocol: Berberine, 3c and 6k of 1 mg were dissolved in three centrifugal tubes (5 ml) containing phosphate buffer (pH 7.4)-saturated 1-octanol solution (2 mL), followed by the addition of 1-octanol saturated PBS (2 mL). Each tube was vigorously mixed for 1 min and then shaken for 6 h at a speed of 1000 rpm at 37 °C. The mixtures were then centrifuged. 1 mL of 1-octanol phase and 1 mL of buffer were separately collected. Each phase was diluted to a suitable concentration and analysed by HPLC (Shimadzu DGU-20A3R) on a Shimadzu-GL WondaSil C18-WR column (λ = 254 nm) with an eluent of methanol/water (65/35, v/v, 1.0 ml/min). The log D value for each compound was calculated from the ratio of the peak areas using the following equation: Log D = log (Areaoct × x/Areabuf × y). x, y is the dilution factor.

In series [4] the test system is Hep3B cells. The experiment in a line: In vitro antiproliferative MTT assay, Hep3B cells. It is filed as cell-based, human. The note with it: 72 h, mean ± SD (n = 3). Here is the method:
as §1

Series [5] concerns Huh-7 cells. As to the kind of experiment: In vitro antiproliferative MTT assay, Huh-7 cells. It is filed as cell-based, human. The settings on record: 72 h, mean ± SD (n = 3). The protocol:
as §1

For series [6], the system named is H22 liver cancer xenograft. The experiment in a line: In vivo anti-HCC assay, H22 liver cancer xenograft mouse model. On the set-up: species or system mice. The settings on record: intravenous, once a day for 21 days, H22 mice. Here is the method:
Five-week-old male Institute of Cancer Research (ICR) mice were purchased from Shanghai SLAC Laboratory Animals Co. Ltd. Briefly, a total of 1 × 10^6 H22 cells were subcutaneously inoculated into the right flank of ICR mice according to protocols of tumour transplant research, to initiate tumour growth. After incubation for one day, mice were weighed and randomly divided into 5 groups of 8 animals. The groups were administered berberine (30 mg/kg) and 6k (15 or 30 mg/kg) in a vehicle of 10% DMF/2% Tween 80/88% saline, respectively. Vehicle and cyclophosphamide (20 mg/kg) were employed as negative and positive controls, respectively. Treatments were performed by intravenous injection once per day for a total of 21 consecutive days. Body weights and tumour volumes were measured every 2 days. The mice were sacrificed after the treatments, and the tumours were excised and weighed. The tumour volume and inhibition rate (w/w) were calculated as follows: tumour volume = L × W^2/2, where L is the length and W is the width; tumour inhibitory ratio (%) = (1-average tumour weight of treated group/average tumour weight of control group) × 100%. All procedures were performed following institutional approval in accordance with the NIH Guide for the Care and Use of Laboratory Animals.

Series [7] can be described thus: Aqueous solubility measurement by HPLC. It is filed as physicochemical. The note with it: 25 °C. Here is the method:
Berberine, 3c and 6k (5 mg) were dissolved in 1 ml PBS (50 mM, pH 7.4) at 25 °C. The suspension was sonicated for 30 min and then centrifuged at 15000 g for 5 min. The supernatant was filtered through a PTFE filter (0.2 μm) slowly. Then 10 μL filtered solution was injected into the HPLC system (Shimadzu DGU-20A3R) on a Shimadzu-GL WondaSil C18-WR column and quantified using the standard curves made by the corresponding known concentrations of berberine, 3c and 6k. The eluent was methanol/water (65/35, v/v) at a flow rate of 1.0 ml/min with the detection wavelength at 254 nm.

Series [8] deals with HepG2 cells. The experiment in a line: In vitro antiproliferative MTT assay, HepG2 cells. It is filed as cell-based, human. The settings on record: 72 h, mean ± SD (n = 3), read-out: IC50 (antiproliferative activity against HepG2 cells). The protocol: as §1
In series [9] the test system is normal hepatocytes L-02. The experiment in a line: MTT cytotoxicity assay, normal hepatocytes L-02. It is filed as cell-based. The settings on record: normal hepatocytes L-02, MTT, 72 h, mean ± SD (n = 3). Here is the method:
as §1

For series [10], the system named is c-MYC G4 DNA (FPu18T). The experiment in a line: FRET-melting assay, FPu18T (c-MYC G4 DNA model). The settings on record: 2 μM compounds.
Series [11] concerns human hepatoma cells including HepG2, Sk-Hep-1 and Huh-7 cells. As to the kind of experiment: Antiproliferative MTT assay, summary over human hepatoma cells. It is filed as cell-based. The note with it: read-out: IC50 values against human hepatoma cells (span over cell lines). Here is the method: as §1

A word on the IC50: it is the midpoint of a concentration-inhibition curve. One may read the solubility as how much of the substance goes into solution per volume. The term melting point denotes the temperature of the solid-liquid transition.

Molecules are shown by their SMILES. Read-outs that look alike come from different tables or passages of the source.

On to `COc1ccc2cc3[n+](cc2c1OC)CCc1cc2c(cc1-3)OCO2` [Berberine], for which the “ΔTm(B) = Tm(F10T + compound) - Tm(F10T)” value in series [1] was 2.0 °C. In addition, the IC50 was over 50 µM in series [2] (Homo sapiens, SK-HEP1, 72 h); over 50 µM in series [4] (Homo sapiens); over 50 µM in series [5] (Homo sapiens); over 50 µM in series [8] (Homo sapiens); over 50 µM in [9] (Hepatocyte); over 50 µM in [11]. Also, the logD in series [3] (1-octanol/phosphate buffer (PBS), 1-octanol/PBS pH 7.4, shake flask, 37 °C, read-out: Log D) is -0.98. Moreover, the “tumour inhibitory rate (TIR, w/w)” value in series [6] (30 mg/kg) was 47.3%. The solubility at 30 min in series [7] (PBS (50 mM, aqueous buffer, thermodynamic from solid), PBS (pH 7.4), HPLC, read-out: Solubility) was 1360 µg/mL. Also, in [10], the “ΔTm(A) = Tm(FPu18T + compound) - Tm(FPu18T)” value was determined as 1.2 °C.

For `O=P1(N(CCCl)CCCl)NCCCO1` (centres unmarked) [CP, cyclophosphamide, reference compound], the “tumour inhibitory rate (TIR, w/w)” value in series [6] (20 mg/kg) was 64.2%.

Consider `N.N.[Cl][Pt][Cl]` [Cisplatin], for which the concentration for half-maximal inhibition (IC50) in series [2] (72 h) came to 6.52 ± 0.42 µM; in series [4], 11.2 ± 0.51 µM; in [5], 3.03 ± 0.63 µM; in series [8], 6.87 ± 0.31 µM; in [9], 6.79 ± 0.46 µM.

`CCCCCCCCc1c2[n+](cc3c(OC)c(OC)ccc13)CCc1cc3c(cc1-2)OCO3.[Cl-]` [Compound 3c, 9,10-Dimethoxy-13-octyl-5,6-dihydro-[1,3]dioxolo[4,5-g]isoquinolino[3,2-a]isoquinolin-7-ium chloride] had a logD in series [3] (pH 7.4) of 2.41. This molecule came in with a solubility at 30 min in series [7] (pH 7.4, aqueous buffer, thermodynamic from solid) of 1120 µg/mL. For the same molecule, the IC50 in [8] (Homo sapiens) was found to be 4.12 ± 0.26 µM.

In turn, `CCCCCCCCc1c2[n+](cc3c(OCCCCCCN4CCN(C)CC4)c(OC)ccc13)CCc1cc3c(cc1-2)OCO3.[Br-]` [Compound 6h, 10-Methoxy-9-((6–(4-methylpiperazin-1-yl)hexyl)oxy)-13-octyl-5,6-dihydro-[1,3]dioxolo[4,5-g]isoquinolino[3,2-a]isoquinolin-7-ium bromide] came in with a melting point of 165 to 167 °C. The half-inhibitory concentration (IC50) in series [8] (Homo sapiens) was found to be 1.47 ± 0.19 µM.

The molecule `CCCCCCCCc1c2[n+](cc3c(OCCCCCCCCN4CCOCC4)c(OC)ccc13)CCc1cc3c(cc1-2)OCO3.[Br-]` [Compound 6i, 10-Methoxy-9-((8-morpholinooctyl)oxy)-13-octyl-5,6-dihydro-[1,3]dioxolo[4,5-g]isoquinolino[3,2-a]isoquinolin-7-ium bromide] came in with a melting point of 147 to 149 °C. Further, in series [8] (Homo sapiens), the 50% inhibitory concentration (IC50) stood at 0.81 ± 0.08 µM.

Regarding `CCCCCCCCc1c2[n+](cc3c(OCCCCCCCCN4CCCCC4)c(OC)ccc13)CCc1cc3c(cc1-2)OCO3.[Br-]` [Compound 6j, 10-Methoxy-13-octyl-9-((8-(piperidin-1-yl)octyl)oxy)-5,6-dihydro-[1,3]dioxolo[4,5-g]isoquinolino[3,2-a]isoquinolin-7-ium bromide], the melting point lay in the range of 144 to 146 °C. Moreover, the IC50 in [8] (Homo sapiens) came out at 1 ± 0.1 µM.

Molecule `CCCCCCCCc1c2[n+](cc3c(OCCCCCCCCCCN4CCOCC4)c(OC)ccc13)CCc1cc3c(cc1-2)OCO3.[Br-]` [Compound 6l, 10-Methoxy-9-((10-morpholinodecyl)oxy)-13-octyl-5,6-dihydro-[1,3]dioxolo[4,5-g]isoquinolino[3,2-a]isoquinolin-7-ium bromide] yielded a melting point of 135 to 137 °C. Moreover, the IC50 in series [8] (Homo sapiens) was 1.28 ± 0.11 µM.

As for `CCCCCCCCc1c2[n+](cc3c(OCCCCCCCCCCN4CCCCC4)c(OC)ccc13)CCc1cc3c(cc1-2)OCO3.[Br-]` [Compound 6m, 10-Methoxy-13-octyl-9-((10-(piperidin-1-yl)decyl)oxy)-5,6-dihydro-[1,3]dioxolo[4,5-g]isoquinolino[3,2-a]isoquinolin-7-ium bromide], the melting point was 142 to 144 °C. The IC50 in [8] (Homo sapiens) turned out to be 1.44 ± 0.13 µM.

Take `CCCCCCCCc1c2[n+](cc3c(OCCCCCCCCCCN4CCN(C)CC4)c(OC)ccc13)CCc1cc3c(cc1-2)OCO3.[Br-]` [Compound 6n, 10-Methoxy-9-((10–(4-methylpiperazin-1-yl)decyl)oxy)-13-octyl-5,6-dihydro-[1,3]dioxolo[4,5-g]isoquinolino[3,2-a]isoquinolin-7-ium bromide]: the melting point lay within 136 to 138 °C. The half-maximal inhibitory concentration (IC50) in [8] (Homo sapiens) came out at 1.08 ± 0.1 µM.

(Values after paper PMC9467586, “Development of novel 9-O-substituted-13-octylberberine derivatives as potential anti-hepatocellular carcinoma agents” (Journal of Enzyme Inhibition and Medicinal Chemistry, 2022).)
